Results reported in ChEMBL document CHEMBL5442219.

Experiments:
Details in all cases: Compound concentration 10 µM
[1] = target: 5-hydroxytryptamine receptor 1E (Homo sapiens) (UniProt P28566)
Description: PDSP Primary Binding target: HTR1E - Compounds are tested at 10 uM concentration, plate are incubated at room temperature in the dark for 90 minutes. Reaction are stopped by vacuum filtration onto 0.3% polyethyleneimine soaked filter mats using Filtermate harvester. Scintilation cocktail is then melted onto microwave-dried filters on a hot plate and the radio activity is counted in Microbia counter.

[2] = target: Sigma non-opioid intracellular receptor 1 (Homo sapiens) (UniProt Q99720)
Description: PDSP Primary Binding target: SIGMAR1 - Compounds are tested at 10 uM concentration, plate are incubated at room temperature in the dark for 90 minutes. Reaction are stopped by vacuum filtration onto 0.3% polyethyleneimine soaked filter mats using Filtermate harvester. Scintilation cocktail is then melted onto microwave-dried filters on a hot plate and the radio activity is counted in Microbia counter.

[3] = target: Sodium-dependent serotonin transporter (Homo sapiens) (UniProt P31645)
Description: PDSP Primary Binding target: SLC6A4 - Compounds are tested at 10 uM concentration, plate are incubated at room temperature in the dark for 90 minutes. Reaction are stopped by vacuum filtration onto 0.3% polyethyleneimine soaked filter mats using Filtermate harvester. Scintilation cocktail is then melted onto microwave-dried filters on a hot plate and the radio activity is counted in Microbia counter.

[4] = target: Mu-type opioid receptor (Homo sapiens) (UniProt P35372)
Description: PDSP Primary Binding target: OPRM1 - Compounds are tested at 10 uM concentration, plate are incubated at room temperature in the dark for 90 minutes. Reaction are stopped by vacuum filtration onto 0.3% polyethyleneimine soaked filter mats using Filtermate harvester. Scintilation cocktail is then melted onto microwave-dried filters on a hot plate and the radio activity is counted in Microbia counter.

[5] = target: 5-hydroxytryptamine receptor 2A (Homo sapiens) (UniProt P28223)
Description: PDSP Primary Binding target: HTR2A - Compounds are tested at 10 uM concentration, plate are incubated at room temperature in the dark for 90 minutes. Reaction are stopped by vacuum filtration onto 0.3% polyethyleneimine soaked filter mats using Filtermate harvester. Scintilation cocktail is then melted onto microwave-dried filters on a hot plate and the radio activity is counted in Microbia counter.

[6] = target: 5-hydroxytryptamine receptor 1D (Homo sapiens) (UniProt P28221)
Description: PDSP Primary Binding target: HTR1D - Compounds are tested at 10 uM concentration, plate are incubated at room temperature in the dark for 90 minutes. Reaction are stopped by vacuum filtration onto 0.3% polyethyleneimine soaked filter mats using Filtermate harvester. Scintilation cocktail is then melted onto microwave-dried filters on a hot plate and the radio activity is counted in Microbia counter.

[7] = target: D(2) dopamine receptor (Homo sapiens) (UniProt P14416)
Description: PDSP Primary Binding target: DRD2 - Compounds are tested at 10 uM concentration, plate are incubated at room temperature in the dark for 90 minutes. Reaction are stopped by vacuum filtration onto 0.3% polyethyleneimine soaked filter mats using Filtermate harvester. Scintilation cocktail is then melted onto microwave-dried filters on a hot plate and the radio activity is counted in Microbia counter.

[8] = target: T1, 5-hydroxytryptamine receptor 2C (Homo sapiens) (UniProt P28335)
T1 sequence (whole entry): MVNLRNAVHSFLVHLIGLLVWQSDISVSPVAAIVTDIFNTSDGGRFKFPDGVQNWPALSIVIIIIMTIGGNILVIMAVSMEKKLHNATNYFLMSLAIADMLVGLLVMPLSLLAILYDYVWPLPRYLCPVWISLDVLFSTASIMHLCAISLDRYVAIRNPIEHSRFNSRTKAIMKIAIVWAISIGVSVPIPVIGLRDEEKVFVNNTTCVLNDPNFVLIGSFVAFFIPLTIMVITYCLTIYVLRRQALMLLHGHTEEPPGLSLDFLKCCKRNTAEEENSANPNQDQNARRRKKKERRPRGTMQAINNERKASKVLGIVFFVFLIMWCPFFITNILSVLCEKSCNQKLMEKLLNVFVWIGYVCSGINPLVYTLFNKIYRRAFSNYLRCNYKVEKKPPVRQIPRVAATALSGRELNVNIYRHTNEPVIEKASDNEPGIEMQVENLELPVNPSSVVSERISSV
Description: PDSP Primary Binding target: HTR2C - Compounds are tested at 10 uM concentration, plate are incubated at room temperature in the dark for 90 minutes. Reaction are stopped by vacuum filtration onto 0.3% polyethyleneimine soaked filter mats using Filtermate harvester. Scintilation cocktail is then melted onto microwave-dried filters on a hot plate and the radio activity is counted in Microbia counter.

[9] = target: D(3) dopamine receptor (Homo sapiens) (UniProt P35462)
D(3) dopamine receptor (Homo sapiens), sequence (P35462 whole entry): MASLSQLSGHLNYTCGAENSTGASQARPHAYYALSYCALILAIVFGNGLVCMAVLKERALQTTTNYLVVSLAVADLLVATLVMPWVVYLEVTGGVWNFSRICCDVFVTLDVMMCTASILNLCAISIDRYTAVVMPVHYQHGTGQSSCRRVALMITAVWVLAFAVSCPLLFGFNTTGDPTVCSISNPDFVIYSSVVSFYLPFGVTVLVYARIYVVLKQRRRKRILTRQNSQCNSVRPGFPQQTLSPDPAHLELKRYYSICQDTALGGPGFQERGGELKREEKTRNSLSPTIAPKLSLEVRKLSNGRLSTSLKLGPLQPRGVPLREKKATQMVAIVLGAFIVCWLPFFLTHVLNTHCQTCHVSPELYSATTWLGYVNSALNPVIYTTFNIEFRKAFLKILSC
Description: PDSP Primary Binding target: DRD3 - Compounds are tested at 10 uM concentration, plate are incubated at room temperature in the dark for 90 minutes. Reaction are stopped by vacuum filtration onto 0.3% polyethyleneimine soaked filter mats using Filtermate harvester. Scintilation cocktail is then melted onto microwave-dried filters on a hot plate and the radio activity is counted in Microbia counter.

[10] = target: 5-hydroxytryptamine receptor 1B (Homo sapiens) (UniProt P28222)
Description: PDSP Primary Binding target: HTR1B - Compounds are tested at 10 uM concentration, plate are incubated at room temperature in the dark for 90 minutes. Reaction are stopped by vacuum filtration onto 0.3% polyethyleneimine soaked filter mats using Filtermate harvester. Scintilation cocktail is then melted onto microwave-dried filters on a hot plate and the radio activity is counted in Microbia counter.

[11] = target: Sodium-dependent dopamine transporter (Homo sapiens) (UniProt Q01959)
Sodium-dependent dopamine transporter (Homo sapiens), sequence (Q01959 whole entry): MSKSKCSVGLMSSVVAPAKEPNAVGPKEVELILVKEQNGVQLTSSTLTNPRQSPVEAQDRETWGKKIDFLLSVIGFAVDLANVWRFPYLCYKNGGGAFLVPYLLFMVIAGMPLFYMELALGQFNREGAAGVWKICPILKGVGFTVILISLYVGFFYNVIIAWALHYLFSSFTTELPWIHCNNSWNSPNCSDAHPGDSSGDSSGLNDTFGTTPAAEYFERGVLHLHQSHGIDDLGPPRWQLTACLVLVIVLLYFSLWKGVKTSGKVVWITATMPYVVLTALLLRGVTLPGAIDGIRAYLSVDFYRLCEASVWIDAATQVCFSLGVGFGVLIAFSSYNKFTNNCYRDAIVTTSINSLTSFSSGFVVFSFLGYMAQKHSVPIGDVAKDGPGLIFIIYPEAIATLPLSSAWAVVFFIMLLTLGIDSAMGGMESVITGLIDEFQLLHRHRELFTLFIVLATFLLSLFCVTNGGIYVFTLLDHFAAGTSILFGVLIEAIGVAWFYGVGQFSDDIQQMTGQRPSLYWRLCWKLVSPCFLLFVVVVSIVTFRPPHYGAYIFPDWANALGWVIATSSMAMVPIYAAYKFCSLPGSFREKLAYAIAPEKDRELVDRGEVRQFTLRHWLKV
Description: PDSP Primary Binding target: SLC6A3 - Compounds are tested at 10 uM concentration, plate are incubated at room temperature in the dark for 90 minutes. Reaction are stopped by vacuum filtration onto 0.3% polyethyleneimine soaked filter mats using Filtermate harvester. Scintilation cocktail is then melted onto microwave-dried filters on a hot plate and the radio activity is counted in Microbia counter.

[12] = target: Sigma intracellular receptor 2 (Homo sapiens) (UniProt Q5BJF2)
Description: PDSP Primary Binding target: TMEM97 - Compounds are tested at 10 uM concentration, plate are incubated at room temperature in the dark for 90 minutes. Reaction are stopped by vacuum filtration onto 0.3% polyethyleneimine soaked filter mats using Filtermate harvester. Scintilation cocktail is then melted onto microwave-dried filters on a hot plate and the radio activity is counted in Microbia counter.

[13] = target: Histamine H3 receptor (Homo sapiens) (UniProt Q9Y5N1)
Histamine H3 receptor (Homo sapiens), sequence (Q9Y5N1 whole entry): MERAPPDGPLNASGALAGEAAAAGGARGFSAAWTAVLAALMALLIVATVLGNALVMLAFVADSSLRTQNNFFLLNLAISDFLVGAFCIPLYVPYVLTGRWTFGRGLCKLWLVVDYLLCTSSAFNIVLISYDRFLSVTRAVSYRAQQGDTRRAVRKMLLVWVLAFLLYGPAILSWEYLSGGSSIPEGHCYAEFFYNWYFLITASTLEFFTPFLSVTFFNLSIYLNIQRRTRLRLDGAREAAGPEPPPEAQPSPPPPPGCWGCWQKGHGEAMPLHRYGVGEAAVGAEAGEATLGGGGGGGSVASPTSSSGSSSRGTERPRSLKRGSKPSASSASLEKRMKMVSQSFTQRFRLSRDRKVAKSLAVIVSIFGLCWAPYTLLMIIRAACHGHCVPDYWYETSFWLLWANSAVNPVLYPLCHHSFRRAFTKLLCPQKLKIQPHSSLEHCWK
Description: PDSP Primary Binding target: HRH3 - Compounds are tested at 10 uM concentration, plate are incubated at room temperature in the dark for 90 minutes. Reaction are stopped by vacuum filtration onto 0.3% polyethyleneimine soaked filter mats using Filtermate harvester. Scintilation cocktail is then melted onto microwave-dried filters on a hot plate and the radio activity is counted in Microbia counter.

[14] = target: T2, 5-hydroxytryptamine receptor 1A (Homo sapiens) (UniProt P08908)
T2 sequence (whole entry): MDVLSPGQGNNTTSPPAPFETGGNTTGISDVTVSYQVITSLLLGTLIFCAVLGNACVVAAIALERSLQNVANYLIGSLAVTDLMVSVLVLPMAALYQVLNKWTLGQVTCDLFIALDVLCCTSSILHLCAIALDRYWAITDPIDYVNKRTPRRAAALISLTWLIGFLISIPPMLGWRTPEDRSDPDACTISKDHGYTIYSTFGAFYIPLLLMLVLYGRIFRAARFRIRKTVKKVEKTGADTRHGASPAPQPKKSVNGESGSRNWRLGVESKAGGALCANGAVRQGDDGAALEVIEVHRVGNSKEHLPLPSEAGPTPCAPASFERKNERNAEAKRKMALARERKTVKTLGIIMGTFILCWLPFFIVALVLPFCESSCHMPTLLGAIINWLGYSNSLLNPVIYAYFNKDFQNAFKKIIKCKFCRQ
Description: PDSP Primary Binding target: HTR1A - Compounds are tested at 10 uM concentration, plate are incubated at room temperature in the dark for 90 minutes. Reaction are stopped by vacuum filtration onto 0.3% polyethyleneimine soaked filter mats using Filtermate harvester. Scintilation cocktail is then melted onto microwave-dried filters on a hot plate and the radio activity is counted in Microbia counter.

[15] = target: T3, Alpha-1A adrenergic receptor (Homo sapiens) (UniProt P35348)
T3 sequence (whole entry): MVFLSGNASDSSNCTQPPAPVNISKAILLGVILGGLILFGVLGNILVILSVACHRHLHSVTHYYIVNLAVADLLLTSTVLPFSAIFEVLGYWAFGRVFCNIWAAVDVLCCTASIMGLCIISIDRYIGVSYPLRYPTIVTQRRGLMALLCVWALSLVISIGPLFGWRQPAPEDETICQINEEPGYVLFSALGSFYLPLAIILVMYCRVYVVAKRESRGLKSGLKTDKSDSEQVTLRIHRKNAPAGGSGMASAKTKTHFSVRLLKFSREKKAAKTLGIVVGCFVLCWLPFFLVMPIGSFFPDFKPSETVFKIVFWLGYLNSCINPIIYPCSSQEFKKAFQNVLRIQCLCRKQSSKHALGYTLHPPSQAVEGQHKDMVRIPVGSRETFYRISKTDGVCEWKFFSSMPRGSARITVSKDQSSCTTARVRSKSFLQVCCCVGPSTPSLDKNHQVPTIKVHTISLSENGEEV
Description: PDSP Primary Binding target: ADRA1A - Compounds are tested at 10 uM concentration, plate are incubated at room temperature in the dark for 90 minutes. Reaction are stopped by vacuum filtration onto 0.3% polyethyleneimine soaked filter mats using Filtermate harvester. Scintilation cocktail is then melted onto microwave-dried filters on a hot plate and the radio activity is counted in Microbia counter.

[16] = target: T4, Muscarinic acetylcholine receptor M1 (Homo sapiens) (UniProt P11229)
T4 sequence (whole entry): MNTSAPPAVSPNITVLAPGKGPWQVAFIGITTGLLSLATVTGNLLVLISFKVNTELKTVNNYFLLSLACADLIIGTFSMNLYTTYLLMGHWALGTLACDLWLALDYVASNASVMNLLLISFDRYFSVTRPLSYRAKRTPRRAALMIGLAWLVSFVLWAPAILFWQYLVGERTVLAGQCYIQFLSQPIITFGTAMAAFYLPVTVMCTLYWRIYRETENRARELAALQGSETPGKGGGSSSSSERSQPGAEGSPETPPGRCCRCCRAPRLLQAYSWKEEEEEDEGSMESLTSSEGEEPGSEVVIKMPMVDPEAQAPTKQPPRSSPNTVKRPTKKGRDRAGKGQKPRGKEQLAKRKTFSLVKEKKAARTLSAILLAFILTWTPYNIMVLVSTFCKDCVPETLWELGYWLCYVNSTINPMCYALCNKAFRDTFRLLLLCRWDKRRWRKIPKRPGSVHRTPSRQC
Description: PDSP Primary Binding target: CHRM1 - Compounds are tested at 10 uM concentration, plate are incubated at room temperature in the dark for 90 minutes. Reaction are stopped by vacuum filtration onto 0.3% polyethyleneimine soaked filter mats using Filtermate harvester. Scintilation cocktail is then melted onto microwave-dried filters on a hot plate and the radio activity is counted in Microbia counter.

[17] = target: 5-hydroxytryptamine receptor 2B (Homo sapiens) (UniProt P41595)
5-hydroxytryptamine receptor 2B (Homo sapiens), sequence (P41595 whole entry): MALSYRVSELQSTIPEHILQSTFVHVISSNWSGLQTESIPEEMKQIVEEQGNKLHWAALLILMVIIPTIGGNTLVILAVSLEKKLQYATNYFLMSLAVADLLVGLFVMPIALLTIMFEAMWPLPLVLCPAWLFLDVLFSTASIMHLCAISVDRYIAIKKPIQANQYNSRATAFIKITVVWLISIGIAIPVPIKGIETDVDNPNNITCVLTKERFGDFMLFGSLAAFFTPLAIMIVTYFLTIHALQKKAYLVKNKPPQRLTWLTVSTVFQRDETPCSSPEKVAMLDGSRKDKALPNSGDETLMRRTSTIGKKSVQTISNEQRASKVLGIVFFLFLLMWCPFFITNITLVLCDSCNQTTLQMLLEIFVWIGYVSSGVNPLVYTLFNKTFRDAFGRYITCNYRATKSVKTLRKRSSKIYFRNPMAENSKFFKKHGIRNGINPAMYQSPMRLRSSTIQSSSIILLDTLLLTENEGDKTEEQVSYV
Description: PDSP Primary Binding target: HTR2B - Compounds are tested at 10 uM concentration, plate are incubated at room temperature in the dark for 90 minutes. Reaction are stopped by vacuum filtration onto 0.3% polyethyleneimine soaked filter mats using Filtermate harvester. Scintilation cocktail is then melted onto microwave-dried filters on a hot plate and the radio activity is counted in Microbia counter.

[18] = target: 5-hydroxytryptamine receptor 7 (Homo sapiens) (UniProt P34969)
5-hydroxytryptamine receptor 7 (Homo sapiens), sequence (P34969 whole entry): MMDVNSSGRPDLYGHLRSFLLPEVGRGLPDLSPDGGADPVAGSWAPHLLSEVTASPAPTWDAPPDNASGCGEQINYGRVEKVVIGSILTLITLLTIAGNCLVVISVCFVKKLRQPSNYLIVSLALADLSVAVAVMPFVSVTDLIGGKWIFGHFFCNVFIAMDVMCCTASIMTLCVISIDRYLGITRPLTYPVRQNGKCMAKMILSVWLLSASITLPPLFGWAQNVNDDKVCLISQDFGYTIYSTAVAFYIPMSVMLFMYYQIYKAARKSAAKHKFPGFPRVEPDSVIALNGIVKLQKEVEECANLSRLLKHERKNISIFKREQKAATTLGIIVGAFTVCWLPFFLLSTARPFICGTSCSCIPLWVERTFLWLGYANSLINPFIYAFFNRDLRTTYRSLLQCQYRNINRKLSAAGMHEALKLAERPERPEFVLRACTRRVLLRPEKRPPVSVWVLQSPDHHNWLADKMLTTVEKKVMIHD
Description: PDSP Primary Binding target: HTR7 - Compounds are tested at 10 uM concentration, plate are incubated at room temperature in the dark for 90 minutes. Reaction are stopped by vacuum filtration onto 0.3% polyethyleneimine soaked filter mats using Filtermate harvester. Scintilation cocktail is then melted onto microwave-dried filters on a hot plate and the radio activity is counted in Microbia counter.

[19] = target: D(1A) dopamine receptor (Homo sapiens) (UniProt P21728)
D(1A) dopamine receptor (Homo sapiens), sequence (P21728 whole entry): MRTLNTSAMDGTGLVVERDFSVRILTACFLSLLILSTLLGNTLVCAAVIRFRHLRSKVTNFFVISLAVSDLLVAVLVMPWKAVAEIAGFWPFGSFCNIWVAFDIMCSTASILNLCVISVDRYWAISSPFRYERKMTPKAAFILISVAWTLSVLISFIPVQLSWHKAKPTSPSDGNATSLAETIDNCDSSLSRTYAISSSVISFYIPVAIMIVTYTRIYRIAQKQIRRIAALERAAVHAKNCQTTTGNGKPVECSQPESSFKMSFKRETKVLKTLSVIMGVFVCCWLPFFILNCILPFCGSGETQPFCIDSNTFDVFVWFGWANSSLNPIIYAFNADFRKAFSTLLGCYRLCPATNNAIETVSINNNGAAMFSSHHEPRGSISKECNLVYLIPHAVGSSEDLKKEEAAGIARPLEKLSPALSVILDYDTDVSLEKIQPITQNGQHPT
Description: PDSP Primary Binding target: DRD1 - Compounds are tested at 10 uM concentration, plate are incubated at room temperature in the dark for 90 minutes. Reaction are stopped by vacuum filtration onto 0.3% polyethyleneimine soaked filter mats using Filtermate harvester. Scintilation cocktail is then melted onto microwave-dried filters on a hot plate and the radio activity is counted in Microbia counter.

[20] = target: 5-hydroxytryptamine receptor 5A (Homo sapiens) (UniProt P47898)
5-hydroxytryptamine receptor 5A (Homo sapiens), sequence (P47898 whole entry): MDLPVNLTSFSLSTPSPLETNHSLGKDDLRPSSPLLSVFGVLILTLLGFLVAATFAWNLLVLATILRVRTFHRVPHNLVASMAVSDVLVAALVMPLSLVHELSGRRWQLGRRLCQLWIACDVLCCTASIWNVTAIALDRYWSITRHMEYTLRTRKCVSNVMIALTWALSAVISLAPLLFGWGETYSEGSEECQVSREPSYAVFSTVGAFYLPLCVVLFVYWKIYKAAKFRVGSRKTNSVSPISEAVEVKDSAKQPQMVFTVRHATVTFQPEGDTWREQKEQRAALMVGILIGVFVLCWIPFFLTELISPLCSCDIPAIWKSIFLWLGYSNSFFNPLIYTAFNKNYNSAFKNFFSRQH
Description: PDSP Primary Binding target: HTR5A - Compounds are tested at 10 uM concentration, plate are incubated at room temperature in the dark for 90 minutes. Reaction are stopped by vacuum filtration onto 0.3% polyethyleneimine soaked filter mats using Filtermate harvester. Scintilation cocktail is then melted onto microwave-dried filters on a hot plate and the radio activity is counted in Microbia counter.

5-hydroxytryptamine receptor 1E (Homo sapiens), sequence (P28566 whole entry): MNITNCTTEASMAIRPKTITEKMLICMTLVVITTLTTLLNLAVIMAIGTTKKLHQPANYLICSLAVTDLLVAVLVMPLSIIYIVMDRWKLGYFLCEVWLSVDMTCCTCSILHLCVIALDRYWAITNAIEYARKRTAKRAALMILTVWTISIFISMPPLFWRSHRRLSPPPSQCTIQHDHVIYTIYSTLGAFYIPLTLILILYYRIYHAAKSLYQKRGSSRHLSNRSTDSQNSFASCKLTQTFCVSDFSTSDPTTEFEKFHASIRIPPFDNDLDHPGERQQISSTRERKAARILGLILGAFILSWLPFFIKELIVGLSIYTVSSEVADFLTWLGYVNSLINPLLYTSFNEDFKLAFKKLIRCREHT
Sigma non-opioid intracellular receptor 1 (Homo sapiens), sequence (Q99720 whole entry): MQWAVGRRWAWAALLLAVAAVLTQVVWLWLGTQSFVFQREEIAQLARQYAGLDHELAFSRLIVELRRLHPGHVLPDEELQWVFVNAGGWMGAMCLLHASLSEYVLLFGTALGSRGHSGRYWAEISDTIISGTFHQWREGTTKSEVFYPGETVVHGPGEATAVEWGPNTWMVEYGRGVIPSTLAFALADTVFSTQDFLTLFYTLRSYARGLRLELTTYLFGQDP
Sodium-dependent serotonin transporter (Homo sapiens), sequence (P31645 whole entry, looked up): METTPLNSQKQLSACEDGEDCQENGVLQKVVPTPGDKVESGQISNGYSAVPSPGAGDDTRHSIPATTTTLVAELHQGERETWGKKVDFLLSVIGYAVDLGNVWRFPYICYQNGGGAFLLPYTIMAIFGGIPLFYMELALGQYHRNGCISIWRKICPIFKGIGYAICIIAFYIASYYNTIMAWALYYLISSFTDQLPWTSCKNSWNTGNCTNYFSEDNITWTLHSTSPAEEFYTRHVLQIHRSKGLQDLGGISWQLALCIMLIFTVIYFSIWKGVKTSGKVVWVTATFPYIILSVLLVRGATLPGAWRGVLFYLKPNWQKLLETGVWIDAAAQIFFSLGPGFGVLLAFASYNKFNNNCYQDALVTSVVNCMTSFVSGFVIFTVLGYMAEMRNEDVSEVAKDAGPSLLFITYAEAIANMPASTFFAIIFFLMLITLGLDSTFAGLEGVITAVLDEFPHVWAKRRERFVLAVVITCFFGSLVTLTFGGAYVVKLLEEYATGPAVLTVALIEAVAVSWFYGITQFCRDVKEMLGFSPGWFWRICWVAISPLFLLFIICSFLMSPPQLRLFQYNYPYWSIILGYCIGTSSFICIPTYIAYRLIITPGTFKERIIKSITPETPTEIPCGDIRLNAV
Mu-type opioid receptor (Homo sapiens), sequence (P35372 whole entry): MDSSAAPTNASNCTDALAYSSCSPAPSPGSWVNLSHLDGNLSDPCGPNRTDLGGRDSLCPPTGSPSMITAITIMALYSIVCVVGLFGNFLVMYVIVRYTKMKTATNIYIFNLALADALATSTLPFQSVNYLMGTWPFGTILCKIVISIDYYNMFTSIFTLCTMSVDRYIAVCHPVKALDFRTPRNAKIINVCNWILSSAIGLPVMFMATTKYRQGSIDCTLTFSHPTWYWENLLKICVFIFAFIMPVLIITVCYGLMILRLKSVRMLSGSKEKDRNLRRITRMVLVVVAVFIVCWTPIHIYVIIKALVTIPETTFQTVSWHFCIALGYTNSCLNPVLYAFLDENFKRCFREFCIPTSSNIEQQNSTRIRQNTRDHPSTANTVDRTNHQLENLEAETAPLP

| SMILES | inhibition [1] [%] | inhibition [2] [%] | inhibition [3] [%] | inhibition [4] [%] | inhibition [5] [%] | inhibition [6] [%] | inhibition [7] [%] | inhibition [8] [%] | inhibition [9] [%] | inhibition [10] [%] | inhibition [11] [%] | inhibition [12] [%] | inhibition [13] [%] | inhibition [14] [%] | inhibition [15] [%] | inhibition [16] [%] | inhibition [17] [%] | inhibition [18] [%] | inhibition [19] [%] | inhibition [20] [%] |
| --- | --- | --- | --- | --- | --- | --- | --- | --- | --- | --- | --- | --- | --- | --- | --- | --- | --- | --- | --- | --- |
| CCCNS(=O)(=O)Nc1ncnc(OCCOc2ncc(Br)cn2)c1-c1ccc(Br)cc1 | 42.3 | 15.8 | 67.2 | 30.6 | 42.8 | 9.11 | 15.2 | 4.95 | 54.8 | -0.31 | 31.1 | 30 | 1.52 | 9.06 | – | – | – | – | – | – |
| CO[C@@H]1COCC[C@@H]1N[C@@H]1CC[C@@](C(=O)N2CCc3ncc(C(F)(F)F)cc3C2)(C(C)C)C1 | 9.5 | 81.8 | -2.04 | 11.2 | 4.71 | – | 16.4 | – | 33.7 | -6.23 | 14.2 | 67.9 | 4.46 | 19.6 | -0.61 | -6.06 | -6.19 | – | – | – |
| O=C(O)CC1CCC2(CC1)CCN(c1cc(OC(F)(F)F)ccc1Cl)CC2 | 16.8 | -0.46 | 29.8 | 34.3 | 26.1 | – | 18.6 | 13.1 | 65.5 | -0.21 | 7.81 | -1.25 | 7.59 | -1.2 | -7.1 | -1.08 | – | – | – | – |
| OC[C@H]1O[C@@H](n2cnc3c(NC4CCCC4)ncnc32)[C@H](O)[C@@H]1O | -3.16 | 51.9 | – | – | -8.74 | 24.7 | 25 | -3.43 | 7.26 | 15.9 | 36.9 | 14.2 | 7.78 | -5.74 | -0.37 | 15.4 | 38.5 | 16.1 | -1.28 | -5.9 |
| Clc1ccc(CCCOCCCN2CCCCC2)cc1 | 17.3 | 99.5 | – | 3.99 | 28.5 | 16.4 | 6.98 | 57 | 47.4 | 12.1 | 25.6 | 98.7 | 79.8 | 16.8 | -2.04 | 24.5 | 37 | 63.3 | 12.1 | -0.39 |
| CC1(C)SSC(C)(C)[C@@H](NC(=O)[C@@H](N)Cc2ccc(O)cc2)C(=O)NCC(=O)N[C@@H](Cc2ccccc2)C(=O)N[C@H]1C(=O)O | 17.2 | 21.7 | – | – | 24.5 | 15.2 | 30.3 | – | 0.23 | 7.79 | 27.3 | 22.6 | -2.58 | 3.47 | -6.07 | -6.96 | 24.7 | -0.55 | 11.4 | -9.01 |
| CCC(=O)NCC[C@@H]1CCc2ccc3c(c21)CCO3 | -5.33 | 89.6 | – | -7.21 | 6.79 | 6.75 | 2.72 | -6.58 | 8.49 | 15.8 | -2.02 | 47.4 | – | -7.41 | -9.5 | -3.08 | 72 | 12.4 | -1.3 | 21.8 |
| N#Cc1c(N)nc(SCc2csc(-c3ccc(Cl)cc3)n2)c(C#N)c1-c1ccc(OCCO)cc1 | -9.34 | 39 | – | – | 18.4 | 5.65 | – | 39.9 | 12.5 | 13 | 64.1 | 36.6 | 5.12 | -0.89 | 6.84 | -3.33 | 62.1 | 3.33 | 11.3 | -4.31 |
| FC(F)(F)c1c(N2CCC(c3ccccc3)CC2)ccn2c(CC3CC3)nnc12 | 21.9 | 64.7 | 42.4 | 19.7 | 44.4 | – | 26 | – | 14.2 | -8.94 | 54.2 | 22.9 | – | -5.72 | -6.36 | -1.64 | -9.2 | – | – | – |
| O=C(O)C1CN(Cc2ccc(-c3nc4cc(Cc5ccccc5F)ccc4s3)c(F)c2)C1 | 31.1 | 5.12 | -1.28 | -9.83 | 9.17 | – | – | 35.8 | 91 | – | 30.2 | 19.1 | 1.61 | 11.5 | -8.12 | 0.63 | -9.46 | – | 2.63 | 7.19 |
| CN(C)S(=O)(=O)c1ccc(NC(=S)N2CCC(C(O)(c3ccccc3)c3ccccc3)CC2)cc1 | 7.01 | 45.3 | 16 | 2.22 | 11 | – | 23.4 | 3.54 | 21.5 | – | 33.1 | 95.2 | – | 10.5 | -0.67 | 8.52 | 23.4 | – | 21.9 | – |
